Results published in ChEMBL document CHEMBL4627246, “Pyroglutamide-Based P2X7 Receptor Antagonists Targeting Inflammatory Bowel Disease” (J Med Chem, 2020).

Tests used:
Assay type in all cases: cell-based
[1] = system: HOP-62; assay: Cytotoxicity against human HOP62 cells assessed as effect on cell growth at 10 uM incubated for 48 hrs by sulforhodamine B assay; details: hop-62, 48 h
[2] = system: CAKI-1; assay: Growth inhibition of human Caki1 cells assessed as growth percentage at 10 uM incubated for 48 hrs by sulforhodamine B assay; details: caki-1, 48 h
[3] = system: Hs-578T; assay: Cytotoxicity against human Hs 578T cells assessed as effect on cell growth at 10 uM incubated for 48 hrs by sulforhodamine B assay
[4] = system: SF-539; assay: Cytotoxicity against human SF539 cells assessed as effect on cell growth at 10 uM incubated for 48 hrs by sulforhodamine B assay; details: sf-539, 48 h
[5] = system: NCI/ADR-RES; assay: Cytotoxicity against human NCI/ADR-RES cells assessed as effect on cell growth at 10 uM incubated for 48 hrs by sulforhodamine B assay
[6] = system: COLO 205; assay: Cytotoxicity against human COLO205 cells assessed as effect on cell growth at 10 uM incubated for 48 hrs by sulforhodamine B assay; details: colo 205, 48 h
[7] = system: UO-31; assay: Cytotoxicity against human UO31 cells assessed as effect on cell growth at 10 uM incubated for 48 hrs by sulforhodamine B assay; details: uo-31, 48 h
[8] = system: OVCAR-3; assay: Cytotoxicity against human OVCAR3 cells assessed as effect on cell growth at 10 uM incubated for 48 hrs by sulforhodamine B assay; details: ovcar-3, 48 h
[9] = system: UACC-257; assay: Cytotoxicity against human UACC257 cells assessed as effect on cell growth at 10 uM incubated for 48 hrs by sulforhodamine B assay; details: uacc-257, 48 h
[10] = system: A498; assay: Cytotoxicity against human A498 cells assessed as effect on cell growth at 10 uM incubated for 48 hrs by sulforhodamine B assay; details: a498, 48 h
[11] = system: MDA-MB-435; assay: Cytotoxicity against human MDA-MB-435 cells assessed as effect on cell growth at 10 uM incubated for 48 hrs by sulforhodamine B assay; details: mda-mb-435, 48 h
[12] = system: CCRF-CEM; assay: Cytotoxicity against human CCRF-CEM cells assessed as effect on cell growth at 10 uM incubated for 48 hrs by sulforhodamine B assay
[13] = system: RXF 393; assay: Cytotoxicity against human RXF393 cells assessed as effect on cell growth at 10 uM incubated for 48 hrs by sulforhodamine B assay; details: rxf 393, 48 h
[14] = system: SK-MEL-28; assay: Cytotoxicity against human SK-MEL-28 cells assessed as effect on cell growth at 10 uM incubated for 48 hrs by sulforhodamine B assay; details: sk-mel-28, 48 h
[15] = system: K562; assay: Cytotoxicity against human K562 cells assessed as effect on cell growth at 10 uM incubated for 48 hrs by sulforhodamine B assay; details: k562, 48 h
[16] = system: SN12C; assay: Cytotoxicity against human SN12C cells assessed as effect on cell growth at 10 uM incubated for 48 hrs by sulforhodamine B assay
[17] = system: TK-10; assay: Cytotoxicity against human TK10 cells assessed as effect on cell growth at 10 uM incubated for 48 hrs by sulforhodamine B assay; details: tk-10, 48 h
[18] = system: HCC 2998; assay: Cytotoxicity against human HCC2998 cells assessed as effect on cell growth at 10 uM incubated for 48 hrs by sulforhodamine B assay; details: hcc 2998, 48 h
[19] = system: ACHN; assay: Cytotoxicity against human ACHN cells assessed as effect on cell growth at 10 uM incubated for 48 hrs by sulforhodamine B assay
[20] = system: SR; assay: Cytotoxicity against human SR cells assessed as effect on cell growth at 10 uM incubated for 48 hrs by sulforhodamine B assay

Measured: Activity

CN(C)/C=C1\C[C@H]2C(=O)N(Cc3ccc(Cl)cc3Cl)C(N(C)C)N2C1=O (stereo not given in full)
Non-Toxic: all assays above

CN(C)C(=O)[C@@H]1CCC(=O)N1
Non-Toxic: all assays above

O=C(NCC1CCCCC1)[C@@H]1CCC(=O)N1c1ccccc1
Non-Toxic: all assays above

O=C(NCc1ccc(Cl)cc1Cl)c1ccccn1
Non-Toxic: all assays above

Cc1ccc(NC(=O)[C@@H]2CCC(=O)N2c2ccccc2)cc1
Non-Toxic: all assays above

CN(C)/C=C1\C[C@@H](C(=O)NCc2ccc(Cl)cc2Cl)N(c2cccs2)C1=O
Non-Toxic: all assays above

CN1C(=O)CC[C@H]1C(=O)NCc1cc(C(F)(F)F)ccc1Cl
Non-Toxic: all assays above

O=C1N[C@H](C(=O)NCc2ccc(Cl)cc2Cl)CO1
Non-Toxic: all assays above

COc1ccc(NC(=O)[C@@H]2C/C(=C\N(C)C)C(=O)N2)cc1
Non-Toxic: all assays above
